From patent publication US9834558B2, “Substituted bridged urea analogs as sirtuin modulators” (GLAXOSMITHKLINE LLC, priority 2013, dated 2017)

The molecules below were run against T1, SIRT1 (Homo sapiens, UniProt Q96EB6) (assay: Trp mass spectrometry assay of SIRT1 activation). Conditions: concentration giving 150% activation of SIRT1; Trp peptide substrate.
T1 sequence (Q96EB6 1-747): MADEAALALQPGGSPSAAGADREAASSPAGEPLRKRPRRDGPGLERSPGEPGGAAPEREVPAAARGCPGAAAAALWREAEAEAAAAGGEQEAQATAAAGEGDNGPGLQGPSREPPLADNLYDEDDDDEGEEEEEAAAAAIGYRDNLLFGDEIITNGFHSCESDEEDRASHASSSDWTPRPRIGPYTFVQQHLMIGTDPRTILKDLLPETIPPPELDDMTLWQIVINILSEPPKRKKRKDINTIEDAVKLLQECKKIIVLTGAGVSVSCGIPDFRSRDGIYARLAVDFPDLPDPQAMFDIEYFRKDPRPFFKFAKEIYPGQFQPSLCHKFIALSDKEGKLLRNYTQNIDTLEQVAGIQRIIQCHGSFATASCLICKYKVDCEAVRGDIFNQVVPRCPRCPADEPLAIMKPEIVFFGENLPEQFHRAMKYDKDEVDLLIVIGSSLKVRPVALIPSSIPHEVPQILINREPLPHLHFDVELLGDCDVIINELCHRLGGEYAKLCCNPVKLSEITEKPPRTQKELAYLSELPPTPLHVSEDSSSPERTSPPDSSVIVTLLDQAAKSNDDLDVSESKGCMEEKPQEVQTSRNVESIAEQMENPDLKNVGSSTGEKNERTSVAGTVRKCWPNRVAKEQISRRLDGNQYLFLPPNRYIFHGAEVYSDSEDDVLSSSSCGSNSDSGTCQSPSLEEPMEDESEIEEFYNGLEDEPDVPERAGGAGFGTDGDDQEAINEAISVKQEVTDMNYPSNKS
Format: biochemical
Procedure, shortened: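 N-terminal His-tagged human SIRT1 (10 nM, E. coli BL21(DE3)) with 0.5 μM Ac-RHKK(Ac)W-NH2 peptide and 120 μM βNAD+, 25 min at 25 °C in HEPES pH 7.5, formic acid stop. OAADPR or deacetylated peptide quantified by mass spectrometry; EC1.5 (50% activity increase over control) and Percent Maximum Activation reported.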

| SMILES | Tryp AVG EC1.5 (μM) |
| --- | --- |
| O=C(NCc1ncc(-c2cccc(NC(=O)N3c4nc(-c5cccc(C(F)(F)F)c5)ccc4N4CC[C@H]3C4)c2)o1)OCc1ccccc1 [Example 706] | A (A (EC1.5<1 μM)) |
| O=C(CCCCCNC(=O)c1ccc2c(c1)C(=O)OC21c2ccc(O)cc2Oc2cc(O)ccc21)NCc1ncc(-c2cccc(NC(=O)N3c4nc(-c5cccc(C(F)(F)F)c5)ccc4N4CC[C@H]3C4)c2)o1 [Example 708] | A (A (EC1.5<1 μM)) |
| O=C(Nc1cccc(-c2cnco2)c1)N1c2nc(-c3cncc(C(F)(F)F)c3)ccc2N2C[C@@H](O)[C@H]1C2 [Example 709] | A (A (EC1.5<1 μM)) |
| CS(=O)(=O)c1cccc(-c2ccc3c(n2)N(C(=O)Nc2cccc(-c4cnco4)c2)[C@H]2CCN3C2)c1 [Example 710] | A (A (EC1.5<1 μM)) |
| CCC(=O)c1cccc(NC(=O)N2c3nc(-c4cccc(C(F)(F)F)c4)ccc3N3CC[C@H]2C3)c1 [Example 714] | A (A (EC1.5<1 μM)) |
| CS(=O)(=O)c1cccc(-c2ccc3c(n2)N(C(=O)Nc2cccc(-c4cnco4)n2)[C@H]2CCN3C2)c1 [Example 715] | B (B (EC1.5 1-25 μM)) |
| O=C(Nc1cncc(-c2cnco2)c1)N1c2nc(-c3cncc(F)c3)ccc2N2CC[C@H]1C2 [Example 716] | B (B (EC1.5 1-25 μM)) |
| O=C(Nc1cccc(-c2cnco2)c1)N1c2nc(N3CCC[C@@H](C(F)(F)F)C3)ccc2N2CC[C@H]1C2 [Example 717] | A (A (EC1.5<1 μM)) |
| O=C(Nc1cccc(-c2cnco2)c1)N1c2nc(N3CCC[C@H](C(F)(F)F)C3)ccc2N2CC[C@H]1C2 [Example 718] | A (A (EC1.5<1 μM)) |
| O=C(Nc1nnc(-c2ccccc2)o1)N1c2nc(-c3cccc(C(F)(F)F)c3)ccc2N2CC[C@H]1C2 [Example 719] | A (A (EC1.5<1 μM)) |
| O=C(Nc1nnc(-c2ccccn2)o1)N1c2nc(-c3cccc(C(F)(F)F)c3)ccc2N2CC[C@H]1C2 [Example 720] | A (A (EC1.5<1 μM)) |
| O=C(Nc1nnc(-c2cccnc2)o1)N1c2nc(-c3cccc(C(F)(F)F)c3)ccc2N2CC[C@H]1C2 [Example 721] | A (A (EC1.5<1 μM)) |
| O=C(Nc1cccc(-c2cnco2)c1)N1c2nc(-c3cncc(F)c3)ccc2N2CC[C@H]1C2 [Example 722] | A (A (EC1.5<1 μM)) |
| CS(=O)(=O)c1cccc(-c2ccc3c(n2)N(C(=O)Nc2cc(-c4cnco4)ccn2)[C@H]2CCN3C2)c1 [Example 723] | A (A (EC1.5<1 μM)) |
| CS(=O)(=O)c1cccc(-c2ccc3c(n2)N(C(=O)Nc2cncc(-c4cnco4)c2)[C@H]2CCN3C2)c1 [Example 724] | A (A (EC1.5<1 μM)) |
| NCc1ncc(-c2cccc(NC(=O)N3c4nc(-c5cccc(C(F)(F)F)c5)ccc4N4CC[C@H]3C4)c2)o1 [Example 725] | A (A (EC1.5<1 μM)) |
| O=C(Nc1cc(-c2cnco2)ccn1)N1c2nc(-c3cncc(C(F)(F)F)c3)ccc2N2C[C@@H](O)[C@H]1C2 [Example 726] | B (B (EC1.5 1-25 μM)) |
| O=C(Nc1cc(-c2cnco2)ccn1)N1c2nc(-c3cncc(F)c3)ccc2N2CC[C@H]1C2 [Example 727] | A (A (EC1.5<1 μM)) |
| O=C(Nc1cccc(CN2CCNCC2)c1)N1c2nc(-c3cccc(C(F)(F)F)c3)ccc2N2CC[C@H]1C2 [Example 731] | A (A (EC1.5<1 μM)) |
| O=C(Nc1nnc(-c2ccncc2)s1)N1c2nc(-c3cccc(C(F)(F)F)c3)ccc2N2CC[C@H]1C2 [Example 733] | A (A (EC1.5<1 μM)) |

| SMILES | Tryp AVG EC1.5 (μM) |
| --- | --- |
| O=C(Nc1ncc(-c2ccccc2)s1)N1c2nc(-c3cccc(C(F)(F)F)c3)ccc2N2CC[C@H]1C2 [Example 734] | B (B (EC1.5 1-25 μM)) |
| CCCC(=O)c1cccc(NC(=O)N2c3nc(-c4cccc(C(F)(F)F)c4)ccc3N3CC[C@H]2C3)c1 [Example 736] | A (A (EC1.5<1 μM)) |
| CCCCC(=O)c1cccc(NC(=O)N2c3nc(-c4cccc(C(F)(F)F)c4)ccc3N3CC[C@H]2C3)c1 [Example 737] | A (A (EC1.5<1 μM)) |
| O=C(Nc1cccc(-c2cnco2)n1)N1c2nc(-c3cncc(F)c3)ccc2N2CC[C@H]1C2 [Example 739] | A (A (EC1.5<1 μM)) |
| CC(C)C(=O)c1cccc(NC(=O)N2c3nc(-c4cccc(C(F)(F)F)c4)ccc3N3CC[C@H]2C3)c1 [Example 740] | A (A (EC1.5<1 μM)) |
| O=C(Nc1cccc(-c2cnco2)c1)N1c2nc(N3CCCN(CC(F)(F)F)CC3)ccc2N2CC[C@H]1C2 [Example 741] | A (A (EC1.5<1 μM)) |
| CN1CCN(c2ccnc(NC(=O)N3c4nc(-c5cccc(C(F)(F)F)c5)ccc4N4CC[C@H]3C4)n2)CC1 [Example 742] | A (A (EC1.5<1 μM)) |
| O=C(Nc1cc(-c2cnco2)cc(-c2cnco2)c1)N1c2nc(-c3cccc(C(F)(F)F)c3)ccc2N2CC[C@H]1C2 [Example 743] | A (A (EC1.5<1 μM)) |
| O=C(Nc1nccc(N2CCNCC2)n1)N1c2nc(-c3cccc(C(F)(F)F)c3)ccc2N2CC[C@H]1C2 [Example 745] | B (B (EC1.5 1-25 μM)) |
| Cc1cc(-c2ccc3c(n2)N(C(=O)Nc2cc(-c4cnco4)ccn2)[C@H]2CCN3C2)ccn1 [Example 746] | A (A (EC1.5<1 μM)) |
| CN(C)c1ccnc(NC(=O)N2c3nc(-c4cccc(C(F)(F)F)c4)ccc3N3CC[C@H]2C3)n1 [Example 747] | A (A (EC1.5<1 μM)) |
| Cc1cc(-c2ccc3c(n2)N(C(=O)Nc2cncc(-c4cnco4)c2)[C@H]2CCN3C2)ccn1 [Example 748] | A (A (EC1.5<1 μM)) |
| CC(C)(C)OC(=O)NCC#Cc1cc(NC(=O)N2c3nc(-c4cccc(C(F)(F)F)c4)ccc3N3CC[C@H]2C3)cc(-c2cnco2)c1 [Example 749] | A (A (EC1.5<1 μM)) |
| CC(C)(C)OC(=O)NCCCc1ccc(NC(=O)N2c3nc(-c4cccc(C(F)(F)F)c4)ccc3N3CC[C@H]2C3)cc1-c1cnco1 [Example 750] | A (A (EC1.5<1 μM)) |
| CC(C)(C)OC(=O)NCC#Cc1ccc(NC(=O)N2c3nc(-c4cccc(C(F)(F)F)c4)ccc3N3CC[C@H]2C3)cc1-c1cnco1 [Example 751] | A (A (EC1.5<1 μM)) |
| CC(C)(C)OC(=O)NCCCc1ccc(NC(=O)N2c3nc(-c4cccc(C(F)(F)F)c4)ccc3N3CCC[C@H]2C3)cc1-c1cnco1 [Example 752] | A (A (EC1.5<1 μM)) |
| CC(C)(C)OC(=O)NCC#Cc1ccc(NC(=O)N2c3nc(-c4cccc(C(F)(F)F)c4)ccc3N3CCC[C@H]2C3)cc1-c1cnco1 [Example 753] | A (A (EC1.5<1 μM)) |
| CC(C)(C)OC(=O)NCCCc1cc(NC(=O)N2c3nc(-c4cccc(C(F)(F)F)c4)ccc3N3CCC[C@H]2C3)cc(-c2cnco2)c1 [Example 754] | A (A (EC1.5<1 μM)) |
| NCc1cccc(NC(=O)N2c3nc(-c4cccc(C(F)(F)F)c4)ccc3N3CC[C@H]2C3)c1 [Example 755] | B (B (EC1.5 1-25 μM)) |

Same assay, conditions: percent maximum fold activation of SIRT1; Trp peptide substrate; read-out: Tryp % Fold Act

| SMILES | Emax [%] |
| --- | --- |
| CC(C)(C)OC(=O)NCCCc1cc(NC(=O)N2c3nc(-c4cccc(C(F)(F)F)c4)ccc3N3CCC[C@H]2C3)cc(-c2cnco2)c1 [Example 754] | > 150 |
